Laboratory results taken from patent US20190030018A1 (Celgene Corporation, priority 2017, published 2019).
Read-outs that look alike come from different tables or passages of the source.

What was measured:
[1] = test system: OCI-AML-2; test: In vitro combination studies, CellTitre-Glo cell viability
[2] = test system: KG-1; test: as above
[3] = test system: ML-2; test: as above
[4] = test system: MOLM-13; test: as above
[5] = test system: NOMO-1; test: as above
[6] = test system: HL-60; test: as above
[7] = test system: MV-4-11; test: as above
[8] = test system: HNT-34; test: as above
[9] = test system: OCT-AML-3; test: as above
[10] = test system: F-36-P; test: as above
[11] = test system: AML cell lines; test: In vitro combination studies, CellTitre-Glo cell viability (Bliss, Loewe, HSA, CES synergy analysis); details: FLT3 and JAK inhibitors in combination with Compound 1 in MOLM-13 and NOMO-1 cell lines
Experimental: where EA and EB represent the effect of each single agent and EAB represents the effect of the combination at a given dose.
All data was analyzed using the CES equation:
In cases where single agent dose response fit a Hill slope, the CES analysis was compared to Loewe, Bliss, and HSA models.

[12] = OCI-AML-2, in combination with Compound 1
[13] = KG-1, in combination with Compound 1
[14] = ML-2, in combination with Compound 1
[15] = MOLM-13, in combination with Compound 1
[16] = NOMO-1, in combination with Compound 1
[17] = HL-60, in combination with Compound 1
[18] = MV-4-11, in combination with Compound 1
[19] = HNT-34, in combination with Compound 1
[20] = OCI-AML-3, in combination with Compound 1
[21] = F-36-P, in combination with Compound 1

CC1(COc2ccc3c(c2)ncn3-c2ccc3cccc(N4CCC(N)CC4)c3n2)COC1 [Crenolanib]
No: Synergy analysis for combinations with Compound 1 [1, 12] | Synergy analysis for combinations with Compound 1 [2, 13] | Synergy analysis for combinations with Compound 1 [3, 14] | Synergy analysis for combinations with Compound 1 [5, 16] | Synergy analysis for combinations with Compound 1 [6, 17] | Synergy analysis for combinations with Compound 1 [8, 19] | Synergy analysis for combinations with Compound 1 [9, 20] | Synergy analysis for combinations with Compound 1 [10, 21]
Yes: Synergy analysis for combinations with Compound 1 [4, 15] | Synergy analysis for combinations with Compound 1 [7, 18] | Synergy [11]

CC[C@@](C)(Nc1ccnc(-c2c[nH]c3ncccc23)n1)C(=O)NCC(F)(F)F [Decernotinib]
Yes: Synergy [11]

O=C(Nc1nc2cccc(-c3ccc(CN4CCS(=O)(=O)CC4)cc3)n2n1)C1CC1 [Filgotinib]
Yes: Synergy [11]

CN(C)C(=N)N=C(N)N [Metformin]
No: Synergy analysis for combinations with Compound 1 [1, 12] | Synergy analysis for combinations with Compound 1 [2, 13] | Synergy analysis for combinations with Compound 1 [3, 14] | Synergy analysis for combinations with Compound 1 [4, 15] | Synergy analysis for combinations with Compound 1 [5, 16] | Synergy analysis for combinations with Compound 1 [6, 17] | Synergy analysis for combinations with Compound 1 [7, 18] | Synergy analysis for combinations with Compound 1 [8, 19] | Synergy analysis for combinations with Compound 1 [9, 20] | Synergy analysis for combinations with Compound 1 [10, 21]

C[C@@]12OC(=O)[C@]1([C@@H](O)[C@@H]1C=CCCC1)NC(=O)[C@@H]2CCCl [NPI-0052]
No: Synergy analysis for combinations with Compound 1 [1] | Synergy analysis for combinations with Compound 1 [2] | Synergy analysis for combinations with Compound 1 [3] | Synergy analysis for combinations with Compound 1 [4] | Synergy analysis for combinations with Compound 1 [5] | Synergy analysis for combinations with Compound 1 [6] | Synergy analysis for combinations with Compound 1 [7] | Synergy analysis for combinations with Compound 1 [8] | Synergy analysis for combinations with Compound 1 [9] | Synergy analysis for combinations with Compound 1 [10]

COC(=O)C[C@](O)(CCCC(C)(C)O)C(=O)O[C@@H]1C(OC)=C[C@]23CCCN2CCc2cc4c(cc2[C@H]13)OCO4 [Omacetaxine]
No: Synergy analysis for combinations with Compound 1 [1, 12] | Synergy analysis for combinations with Compound 1 [2, 13] | Synergy analysis for combinations with Compound 1 [3, 14] | Synergy analysis for combinations with Compound 1 [4, 15] | Synergy analysis for combinations with Compound 1 [5, 16] | Synergy analysis for combinations with Compound 1 [6, 17] | Synergy analysis for combinations with Compound 1 [7, 18] | Synergy analysis for combinations with Compound 1 [8, 19] | Synergy analysis for combinations with Compound 1 [9, 20] | Synergy analysis for combinations with Compound 1 [10, 21]

O=C(/C=C/c1ccccc1)NC(NC(=S)Nc1cccc2cccnc12)C(Cl)(Cl)Cl (stereo not shown) [Salubrinol]
No: Synergy analysis for combinations with Compound 1 [1, 12] | Synergy analysis for combinations with Compound 1 [2, 13] | Synergy analysis for combinations with Compound 1 [3, 14] | Synergy analysis for combinations with Compound 1 [4, 15] | Synergy analysis for combinations with Compound 1 [5, 16] | Synergy analysis for combinations with Compound 1 [6, 17] | Synergy analysis for combinations with Compound 1 [7, 18] | Synergy analysis for combinations with Compound 1 [8, 19] | Synergy analysis for combinations with Compound 1 [9, 20] | Synergy analysis for combinations with Compound 1 [10, 21]

COC(=O)[C@H]1[C@@H](O)[C@@]2(O)c3c(OC)cc(O[C@@H]4O[C@@H]([C@H](O)CO)CO[C@H]4OC)cc3O[C@@]2(c2ccc(OC)cc2)[C@@H]1c1ccccc1 [Silvestrol]
No: Synergy analysis for combinations with Compound 1 [1, 12] | Synergy analysis for combinations with Compound 1 [2, 13] | Synergy analysis for combinations with Compound 1 [3, 14] | Synergy analysis for combinations with Compound 1 [4, 15] | Synergy analysis for combinations with Compound 1 [5, 16] | Synergy analysis for combinations with Compound 1 [6, 17] | Synergy analysis for combinations with Compound 1 [7, 18] | Synergy analysis for combinations with Compound 1 [8, 19] | Synergy analysis for combinations with Compound 1 [9, 20] | Synergy analysis for combinations with Compound 1 [10, 21]

C/C=C(/C)C(=O)O[C@H]1C(C)=C2[C@H]([C@@H]1OC(=O)CCCCCCC)[C@@](C)(OC(C)=O)C[C@H](OC(=O)CCC)[C@@]1(O)[C@H]2OC(=O)[C@@]1(C)O [Thapsigargin]
No: Synergy analysis for combinations with Compound 1 [1, 12] | Synergy analysis for combinations with Compound 1 [2, 13] | Synergy analysis for combinations with Compound 1 [3, 14] | Synergy analysis for combinations with Compound 1 [4, 15] | Synergy analysis for combinations with Compound 1 [5, 16] | Synergy analysis for combinations with Compound 1 [6, 17] | Synergy analysis for combinations with Compound 1 [7, 18] | Synergy analysis for combinations with Compound 1 [8, 19] | Synergy analysis for combinations with Compound 1 [9, 20] | Synergy analysis for combinations with Compound 1 [10, 21]

CC(C)[C@]12O[C@H]1[C@@H]1O[C@]13[C@]1(O[C@H]1C[C@H]1C4=C(CC[C@@]13C)C(=O)OC4)[C@@H]2O [Triptolide]
No: Synergy analysis for combinations with Compound 1 [1, 12] | Synergy analysis for combinations with Compound 1 [2, 13] | Synergy analysis for combinations with Compound 1 [3, 14] | Synergy analysis for combinations with Compound 1 [5, 16] | Synergy analysis for combinations with Compound 1 [6, 17] | Synergy analysis for combinations with Compound 1 [7, 18] | Synergy analysis for combinations with Compound 1 [8, 19] | Synergy analysis for combinations with Compound 1 [9, 20] | Synergy analysis for combinations with Compound 1 [10, 21]
Yes: Synergy analysis for combinations with Compound 1 [4, 15]

C[C@H](NC(=O)Cc1cc(F)cc(F)c1)C(=O)N[C@@H]1C(=O)N(C)c2ccccc2-c2ccccc21 [YO-01027]
No: Synergy analysis for combinations with Compound 1 [1, 12] | Synergy analysis for combinations with Compound 1 [2, 13] | Synergy analysis for combinations with Compound 1 [3, 14] | Synergy analysis for combinations with Compound 1 [4, 15] | Synergy analysis for combinations with Compound 1 [5, 16] | Synergy analysis for combinations with Compound 1 [6, 17] | Synergy analysis for combinations with Compound 1 [7, 18] | Synergy analysis for combinations with Compound 1 [8, 19] | Synergy analysis for combinations with Compound 1 [9, 20] | Synergy analysis for combinations with Compound 1 [10, 21]

C1=C/COCc2cc(ccc2OCCN2CCCC2)Nc2nccc(n2)-c2cccc(c2)COC/1 [pacritinib, reference compound]
Yes: Synergy [11]

CC(C)(C)c1cc(NC(=O)Nc2ccc(-c3cn4c(n3)sc3cc(OCCN5CCOCC5)ccc34)cc2)no1 [quizartinib, reference compound]
Yes: Synergy [11]

chloro-N,N-diethyl-5-((4-(2-(4-(3-methylureido)phenyl)pyridin-4-yl)pyrimidin-2-yl)amino)benzenesulfonamide [compound Ii, reference compound]
No: Synergy analysis for combinations with Compound 1 [2, 13] | Synergy analysis for combinations with Compound 1 [3, 14] | Synergy analysis for combinations with Compound 1 [6, 17] | Synergy analysis for combinations with Compound 1 [8, 19]
Yes: Synergy analysis for combinations with Compound 1 [1, 12] | Synergy analysis for combinations with Compound 1 [4, 15] | Synergy analysis for combinations with Compound 1 [5, 16] | Synergy analysis for combinations with Compound 1 [7, 18] | Synergy analysis for combinations with Compound 1 [9, 20] | Synergy analysis for combinations with Compound 1 [10, 21]

pladienolide B [reference compound]
No: Synergy analysis for combinations with Compound 1 [2, 13] | Synergy analysis for combinations with Compound 1 [3, 14] | Synergy analysis for combinations with Compound 1 [6, 17] | Synergy analysis for combinations with Compound 1 [8, 19] | Synergy analysis for combinations with Compound 1 [9, 20]
Yes: Synergy analysis for combinations with Compound 1 [1, 12] | Synergy analysis for combinations with Compound 1 [4, 15] | Synergy analysis for combinations with Compound 1 [5, 16] | Synergy analysis for combinations with Compound 1 [7, 18] | Synergy analysis for combinations with Compound 1 [10, 21]
